# Laboratory results published in ChEMBL document CHEMBL3886147 (2015).
# Where “and” joins values, the source holds several entries; their conditions need not be identical. Equal values may be shown once.
# What was measured:
# Beta-lactamase = Beta-lactamase (Escherichia coli K-12, UniProt P00811); test: (§1) Assays are performed with beta -lactamases expressed in the pET system (Novagen, San Diego, Calif.) without signal peptides. They contain an N-terminal hexa-Histidine tag that is used for purification on Ni-NTA (Qiagen, Hilden, Germany). The compounds are prepared as 50 mM stocks in DMSO and diluted into buffer P1 (50 mM phosphate, pH 7) to a final concentration of 10% DMSO. All further dilutions are done in P2 (P1 with 10% DMSO). Enzyme and compound dilutions are pre-incubated for 10 min at 37 C. and the reaction is started with the addition of pre-warmed (37 C.) nitrocefin at a final concentration of […]. The change in absorption at 490 nm is followed at 37 C. for 10 min with 30 s intervals.
# Beta-lactamase TEM = Beta-lactamase TEM (Bacteria, UniProt P62593); test: as §1
# Sequence of Beta-lactamase TEM (P62593 whole entry): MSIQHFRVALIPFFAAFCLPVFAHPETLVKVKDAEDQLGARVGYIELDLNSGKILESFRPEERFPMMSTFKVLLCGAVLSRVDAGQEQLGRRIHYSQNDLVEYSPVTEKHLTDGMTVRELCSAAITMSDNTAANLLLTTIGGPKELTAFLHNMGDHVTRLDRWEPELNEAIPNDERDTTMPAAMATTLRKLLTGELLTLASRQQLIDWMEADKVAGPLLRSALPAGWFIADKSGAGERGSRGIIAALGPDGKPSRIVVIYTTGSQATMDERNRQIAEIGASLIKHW
# Sequence of Beta-lactamase (P00811 whole entry): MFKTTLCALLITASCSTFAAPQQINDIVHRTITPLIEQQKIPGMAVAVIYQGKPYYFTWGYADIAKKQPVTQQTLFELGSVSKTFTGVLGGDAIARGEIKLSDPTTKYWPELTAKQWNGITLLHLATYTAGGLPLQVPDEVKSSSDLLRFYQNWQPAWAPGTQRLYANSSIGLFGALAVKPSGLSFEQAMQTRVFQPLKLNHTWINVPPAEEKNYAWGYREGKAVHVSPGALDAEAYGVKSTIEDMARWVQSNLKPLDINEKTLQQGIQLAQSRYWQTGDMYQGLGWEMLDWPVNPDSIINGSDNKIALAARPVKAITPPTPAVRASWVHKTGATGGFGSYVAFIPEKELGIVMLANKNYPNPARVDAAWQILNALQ
structure (smiles),measurement,setting,value
[N-]=[N+]=NCC1C/C(=C2\O[C@@H]3CC(=O)N3C2C(=O)OCc2ccccc2)C(=O)O1 (stereo not given in full),IC50,Beta-lactamase,305 nM
COC(=O)C1/C(=C2/CC(CI)OC2=O)O[C@@H]2CC(=O)N12 (stereo not given in full),IC50,Beta-lactamase,126 nM
same,IC50,Beta-lactamase TEM,3.5 nM
"CC1CC(=C2O[C@@H]3CC(=O)N3C2C(=O)O)C(=O)O1 (single isomer, unassigned)",IC50,Beta-lactamase,6080 nM
"CC1C/C(=C2\O[C@@H]3CC(=O)N3C2C(=O)OCc2ccccc2)C(=O)O1 (single isomer, unassigned)",IC50,Beta-lactamase,1070 nM and 301 nM
